Laboratory results published in paper PMC8893036 (European journal of medicinal chemistry, 2022).
Like-named read-outs stand apart in the source and are kept apart here.

Assays:
ABCG2 [1] = target: T1, ABCG2 (Homo sapiens, UniProt Q9UNQ0)
T1 sequence (Q9UNQ0 1-655): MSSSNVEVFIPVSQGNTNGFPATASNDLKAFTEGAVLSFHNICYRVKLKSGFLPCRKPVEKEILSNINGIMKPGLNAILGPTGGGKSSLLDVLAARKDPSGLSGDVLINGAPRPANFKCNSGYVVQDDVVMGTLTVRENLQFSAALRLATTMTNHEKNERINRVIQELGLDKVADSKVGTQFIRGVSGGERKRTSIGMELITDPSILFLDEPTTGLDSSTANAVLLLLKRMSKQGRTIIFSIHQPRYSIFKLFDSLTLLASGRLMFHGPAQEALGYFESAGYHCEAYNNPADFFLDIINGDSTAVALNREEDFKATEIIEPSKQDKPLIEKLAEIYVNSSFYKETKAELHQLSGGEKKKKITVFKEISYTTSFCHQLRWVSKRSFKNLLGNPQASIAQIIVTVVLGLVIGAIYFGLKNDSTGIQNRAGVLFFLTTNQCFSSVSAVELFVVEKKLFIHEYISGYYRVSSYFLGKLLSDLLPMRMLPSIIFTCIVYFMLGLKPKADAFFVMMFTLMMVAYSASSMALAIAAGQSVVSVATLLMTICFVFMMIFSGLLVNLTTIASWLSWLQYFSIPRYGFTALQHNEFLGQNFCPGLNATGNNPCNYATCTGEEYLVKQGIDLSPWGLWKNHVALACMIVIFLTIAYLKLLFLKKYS

[2] = target: T2, human A3 adenosine receptor (Homo sapiens, UniProt P0DMS8); settings: agonists; Tables S1 – S4; cited from earlier work
T2 sequence (P0DMS8 1-318): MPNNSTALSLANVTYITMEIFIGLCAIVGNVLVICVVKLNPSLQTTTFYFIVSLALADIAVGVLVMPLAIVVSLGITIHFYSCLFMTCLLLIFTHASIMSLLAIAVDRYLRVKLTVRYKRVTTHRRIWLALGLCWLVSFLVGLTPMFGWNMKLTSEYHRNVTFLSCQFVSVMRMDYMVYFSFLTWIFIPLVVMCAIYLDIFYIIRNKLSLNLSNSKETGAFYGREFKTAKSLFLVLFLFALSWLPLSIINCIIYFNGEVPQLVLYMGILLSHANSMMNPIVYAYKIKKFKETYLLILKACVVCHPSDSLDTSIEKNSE

ABCG2 [3] = target: T1, ABCG2; experiment: ATPase activity of ABCG2, total membranes of High-Five insect cells
P-gp (ABCB1) = settings: cited from earlier work
ABCG2 [4] = target: T1, ABCG2; experiment: in vitro; settings: pH 6.8
human A2A receptor = settings: cited from earlier work
human A1 receptor = settings: cited from earlier work
[5] = target: mouse A3 adenosine receptor; settings: read-out: A3 adenosine receptor affinity Ki; mouse homologue; cited from earlier work

## CNC(=O)[C@H]1O[C@@H](n2cnc3c(NCc4cccc(I)c4)nc(Cl)nc32)[C@H](O)[C@@H]1O [Compound 4, reference compound]
ABCG2 [1]
  modulation of ABCG2 ATP hydrolysis: stimulated ATP hydrolysis at multiple concentrations

## CNC(=O)[C@]12C[C@@H]1[C@@H](n1cnc3c(NCc4cccc(Cl)c4)nc(C#Cc4ccc(F)c(F)c4)nc31)[C@H](O)[C@@H]2O [Compound 5]
[2]
  human A3 adenosine receptor affinity: single digit nM affinity
ABCG2 [3]
  modulation of ABCG2 ATP hydrolysis: stimulated ATP hydrolysis at multiple concentrations
ABCG2 [3]; 2.5 μM, basal ATPase activity = 0%, mean ± SD, three experiments
  ATPase activity of ABCG2 % Stimulation (upward arrow): ≥ 50%
P-gp (ABCB1)
  effect on ATPase activity of P-gp: stimulate the ATPase activity of P-gp

## CNC(=O)[C@]12C[C@@H]1[C@@H](n1cnc3c(NCc4cccc(Cl)c4)nc(C#Cc4ccccc4)nc31)[C@H](O)[C@@H]2O [Compound 8]
ABCG2 [3]
  modulation of ABCG2 ATP hydrolysis: stimulated ATP hydrolysis at 2.5 μM, but not 10 μM

## CNC(=O)[C@]12C[C@@H]1[C@@H](n1cnc3c(NCc4cccc(Cl)c4)nc(C#Cc4cccc(Cl)c4)nc31)[C@H](O)[C@@H]2O [Compound 10]
ABCG2 [3]
  modulation of ABCG2 ATP hydrolysis: stimulated ATP hydrolysis at 2.5 μM, but not 10 μM

## CNC(=O)[C@]12C[C@@H]1[C@@H](n1cnc3c(N[C@H]4C[C@@H]4c4ccc(F)c(F)c4)nc(C#Cc4cccc(F)c4)nc31)[C@H](O)[C@@H]2O [Compound 15]
ABCG2 [1]; human, 20 min, 2.5 μM, pH 6.8
  modulation of ABCG2 ATP hydrolysis: stimulated ATP hydrolysis at 2.5 μM, but not 10 μM
[2]
  human A3 adenosine receptor affinity: single digit nM affinity

## CNC(=O)[C@]12C[C@@H]1[C@@H](n1cnc3c(NCc4cccc(-n5cc(-c6ccc(F)c(F)c6)nn5)c4)nc(C#Cc4ccc(F)cc4)nc31)[C@H](O)[C@@H]2O [Compound 16]
ABCG2 [4]
  inhibition at 20 min, 2.5 µM: ≥ 50%

## CNC(=O)[C@]12C[C@@H]1[C@@H](n1cnc3c(NCc4cccc(-n5cc(-c6ccc(F)c(F)c6)nn5)c4)nc(C#Cc4ccc(F)c(F)c4)nc31)[C@H](O)[C@@H]2O [Compound 17]
[2]
  human A3 adenosine receptor affinity: single digit nM affinity
P-gp (ABCB1)
  effect on ATPase activity of P-gp: partially inhibited the basal ATPase activity of P-gp

## CNC(=O)[C@]12C[C@@H]1[C@@H](n1cnc3c(NCc4cccc(-n5cc(-c6ccc(F)c(F)c6)nn5)c4)nc(C#Cc4ccc(F)cc4F)nc31)[C@H](O)[C@@H]2O [Compound 19]
ABCG2 [1]; human, 20 min, 2.5 μM, pH 6.8
  modulation of ABCG2 ATP hydrolysis: inhibited only at 10 μM

## CNC(=O)[C@]12C[C@@H]1[C@@H](n1cnc3c(NCc4cccc(-n5cc(-c6ccc(F)c(F)c6)nn5)c4)nc(C#Cc4cc(F)c(F)c(F)c4)nc31)[C@H](O)[C@@H]2O [Compound 20]
ABCG2 [1]
  modulation of ABCG2 ATP hydrolysis: inhibited ATP hydrolysis at both concentrations

## CNC(=O)[C@]12C[C@@H]1[C@@H](n1cnc3c(NCc4cccc(-n5cc(-c6ccc(F)c(F)c6)nn5)c4)nc(C#Cc4ccc(C(F)(F)F)cc4)nc31)[C@H](O)[C@@H]2O [Compound 21]
ABCG2 [1]; human, 20 min, 2.5 μM, pH 6.8
  modulation of ABCG2 ATP hydrolysis: inhibited only at 10 μM

## CNC(=O)[C@]12C[C@@H]1[C@@H](n1cnc3c(NC)nc(C#Cc4ccc(Cl)s4)nc31)[C@H](O)[C@@H]2O [Compound 25]
ABCG2 [3]
  modulation of ABCG2 ATP hydrolysis: stimulated ATP hydrolysis at 2.5 μM, but not 10 μM

## CCCNc1nc(C#Cc2ccc(Cl)s2)nc2c1ncn2[C@H]1[C@H](O)[C@H](O)[C@@]2(C(=O)NC)C[C@H]12 [Compound 26]
ABCG2 [1]
  modulation of ABCG2 ATP hydrolysis: stimulated ATP hydrolysis at multiple concentrations

## CNc1nc(C#Cc2ccc(Cl)s2)nc2c1ncn2[C@H]1[C@H](O)[C@H](O)[C@@]2(C(=O)OC)C[C@H]12 [Compound 27]
ABCG2 [1]
  modulation of ABCG2 ATP hydrolysis: stimulated ATP hydrolysis at multiple concentrations

## CNC(=O)[C@]12C[C@@H]1[C@@H](n1cnc3c(NCc4cccc(Cl)c4)nc(-n4cc(-c5ccc(F)c(F)c5)nn4)nc31)[C@H](O)[C@@H]2O [Compound 28]
ABCG2 [1]; human, 20 min, 2.5 μM, pH 6.8
  modulation of ABCG2 ATP hydrolysis: inhibited only at 10 μM

## CNC(=O)[C@]12C[C@@H]1[C@@H](n1cnc3c(NCc4cccc(Cl)c4)nc(C#Cc4ccc(Cl)s4)nc31)[C@H](O)[C@@H]2O [Compound 29]
ABCG2 [1]
  modulation of ABCG2 ATP hydrolysis: stimulated ATP hydrolysis at multiple concentrations

## O[C@@H]1[C@H](O)[C@@H]2C[C@@H]2[C@H]1n1cnc2c(NCc3cccc(Cl)c3)nc(C#Cc3ccc(F)c(F)c3)nc21 [Compound 30]
P-gp (ABCB1); 2.5 μM
  increase of P-gp ATPase activity: 116%

## CNC(=O)[C@H]1O[C@@H](n2cnc3c(NC)nc(C#Cc4ccc(Cl)s4)nc32)[C@H](O)[C@@H]1O [Compound 32]
P-gp (ABCB1)
  effect on ATPase activity of P-gp: very weak at P-gp

## CCCNc1nc(C#Cc2ccc(Cl)s2)nc2c1ncn2[C@@H]1O[C@H](C(=O)NC)[C@@H](O)[C@H]1O [Compound 33]
ABCG2 [1]
  modulation of ABCG2 ATP hydrolysis: stimulated ATP hydrolysis at multiple concentrations

## COc1cc(CCNC2=NC(C#Cc3ccc(Cl)s3)=NC3=NC=NC32)ccc1O (centres unmarked) [Compound 37c]
Human A2A receptor; adenine series
  activity at human A2A receptor: inactive
Human A1 receptor; adenine series
  activity at human A1 receptor: inactive

## CCCOC(=O)[C@]12C[C@@H]1[C@@H](n1cnc3c(NC)nc(C#Cc4ccc(Cl)s4)nc31)[C@H](O)[C@@H]2O [Compound 45]
ABCG2 [1]
  modulation of ABCG2 ATP hydrolysis: stimulated ATP hydrolysis at multiple concentrations
[2]
  human A3 adenosine receptor affinity: single digit nM affinity

## CNc1nc(C#Cc2ccc(Cl)s2)nc2c1ncn2[C@H]1[C@H](O)[C@H](O)[C@@]2(C(=O)Oc3ccccc3)C[C@H]12 [Compound 50]
ABCG2 [1]
  modulation of ABCG2 ATP hydrolysis: stimulated ATP hydrolysis at multiple concentrations
[2]
  human A3 adenosine receptor affinity: single digit nM affinity

## CCOC(=O)[C@]12C[C@@H]1[C@@H](n1cnc3c(NCCc4ccc(O)c(OC)c4)nc(C#Cc4ccc(Cl)s4)nc31)[C@H](O)[C@@H]2O [Compound 55]
ABCG2 [1]; human, 20 min, 2.5 μM, pH 6.8
  ATPase activity of ABCG2 % Stimulation (upward arrow): ≥ 50%

## CCOC(=O)[C@]12C[C@@H]1[C@@H](n1ccc3c(NCCc4ccccc4)nc(C#Cc4ccccc4)nc31)[C@H](O)[C@@H]2O [Compound 60]
Human A2A receptor
  activity at human A2A receptor: inactive
[5]
  Ki: > 10 µM
Human A1 receptor
  activity at human A1 receptor: inactive

## CCOC(=O)[C@]12C[C@@H]1[C@@H](n1ccc3c(NCCCc4ccc(OC)c(O)c4)nc(C#Cc4ccccc4)nc31)[C@H](O)[C@@H]2O [Compound 63]
ABCG2 [1]; human, 20 min, 2.5 μM, pH 6.8
  ATPase activity of ABCG2 % Stimulation (upward arrow): ≥ 50%

## CCOC(=O)[C@]12C[C@@H]1[C@@H](n1ccc3c(NCCCc4ccc(OC)c(O)c4)nc(C#Cc4ccc(Cl)s4)nc31)[C@H](O)[C@@H]2O [Compound 64]
ABCG2 [1]; human, 20 min, 2.5 μM, pH 6.8
  ATPase activity of ABCG2 % Stimulation (upward arrow): ≥ 50%
